Experimental data taken from the supplement of paper PMC11208160.

Experiment: recombinant UMI read abundance after kanamycin selection (control-corrected) (log10(CPM+1)); higher = more efficient recombination; extreme values may be limits of the assay; sequences stand for … in AGTGCAGAGAAAATCGGCCAGTTTTCTCTGCCTGCAGTCCGCATGCCGTGGGACCCCTTGGGTTCTAACCTGTTGCCTAGATTTATGCAGCGGACTGCCTTTCTCCCAAAGTGATAAACCGG…AGGTTGGTTTCACT; site = the 11-nt donor
In short: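 Reported values are log10(CPM+1) from a pooled Escherichia coli screen of donor and donor-binding-loop pairs for the IS621 bridge recombinase. Selection used IPTG (0.07 mM) plus kanamycin, against unselected plating, each in two replicates. Recombinant UMIs were amplified across the donor–target junction, sequenced, converted to CPM, averaged over replicates and scaled by control-derived factors.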
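Further: IS621 bridge recombinase in Escherichia coli cells against a fixed T5 target plasmid.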

Sequence | recombinant UMI read abundance (log10)
AGAACGGCATGGACCGGTTTTCCCGGTAATCCGTATTTGCG (site AGAACGGCTCG) | 1.75
AGAACTACATGGACCGGTTTTCCCGGTAATCCGTATTTGGG (site AGAACTACTCC) | 0.434
AGAAGCACATGGACCGGTTTTCCCGGTAATCCGTATTTGTC (site AGAAGCACTGA) | 3.13
AGAAGCCCATGGACCGGTTTTCCCGGTAATCCGTATTTGTC (site AGAAGCCCTGA) | 1.43
AGAAGGCCATGGACCGGTTTTCCCGGTAATCCGTATTTGAC (site AAAAGGCCTGT) | 0
AGAAGGCCATGGACCGGTTTTCCCGGTAATCCGTATTTGAC (site ACAAGGCCTGT) | 0
AGAAGGCCATGGACCGGTTTTCCCGGTAATCCGTATTTGAC (site AGAAGGCCTGT) | 0
AGAAGGCCATGGACCGGTTTTCCCGGTAATCCGTATTTGAC (site ATAAGGCCTGT) | 0
AGAATGGCATGGACCGGTTTTCCCGGTAATCCGTATTTGCT (site AGAAAGGCTAG) | 1.89
AGAATGGCATGGACCGGTTTTCCCGGTAATCCGTATTTGCT (site AGAACGGCTAG) | 1.47
AGAATGGCATGGACCGGTTTTCCCGGTAATCCGTATTTGCT (site AGAAGGGCTAG) | 0.34
AGAATGGCATGGACCGGTTTTCCCGGTAATCCGTATTTGCT (site AGAATGGCTAG) | 2.19
AGACAGGCATGGACCGGTTTTCCCGGTAATCCGTATTTGCT (site AGAAAGGCTAG) | 0
AGACAGGCATGGACCGGTTTTCCCGGTAATCCGTATTTGCT (site AGACAGGCTAG) | 2.44
AGACAGGCATGGACCGGTTTTCCCGGTAATCCGTATTTGCT (site AGAGAGGCTAG) | 0
AGACAGGCATGGACCGGTTTTCCCGGTAATCCGTATTTGCT (site AGATAGGCTAG) | 0.555
AGACTTGCATGGACCGGTTTTCCCGGTAATCCGTATTTGCA (site AGACTTGCTTG) | 0
AGACTTTCATGGACCGGTTTTCCCGGTAATCCGTATTTGAC (site AGACTTTCTGT) | 0
AGACTTTCATGGACCGGTTTTCCCGGTAATCCGTATTTGAC (site AGCCTTTCTGT) | 0
AGACTTTCATGGACCGGTTTTCCCGGTAATCCGTATTTGAC (site AGGCTTTCTGT) | 0.503
AGACTTTCATGGACCGGTTTTCCCGGTAATCCGTATTTGAC (site AGTCTTTCTGT) | 0
AGAGCATCATGGACCGGTTTTCCCGGTAATCCGTATTTGAA (site AGAGCATCTTT) | 2.33
AGAGCCCCATGGACCGGTTTTCCCGGTAATCCGTATTTGCA (site AGAGCCCCTTG) | 1.71
AGAGGACCATGGACCGGTTTTCCCGGTAATCCGTATTTGGG (site AGAGGACCTCC) | 0.0119
AGAGGACCATGGACCGGTTTTCCCGGTAATCCGTATTTGGG (site CGAGGACCTCC) | 0.0261

Sequence | recombinant UMI read abundance (log10)
AGAGGACCATGGACCGGTTTTCCCGGTAATCCGTATTTGGG (site GGAGGACCTCC) | 0.0142
AGAGGACCATGGACCGGTTTTCCCGGTAATCCGTATTTGGG (site TGAGGACCTCC) | 0.0116
AGAGTATCATGGACCGGTTTTCCCGGTAATCCGTATTTGTG (site AGAGTATCTCA) | 2.98
AGATAATCATGGACCGGTTTTCCCGGTAATCCGTATTTGTC (site AGATAATCTGA) | 2.16
AGATAGGCATGGACCGGTTTTCCCGGTAATCCGTATTTGCA (site AGATAGGCTTG) | 2.72
AGATCATCATGGACCGGTTTTCCCGGTAATCCGTATTTGTT (site AGATCATCTAA) | 0.929
AGATCATCATGGACCGGTTTTCCCGGTAATCCGTATTTGTT (site CGATCATCTAG) | 0
AGATCCGCATGGACCGGTTTTCCCGGTAATCCGTATTTGGT (site AGATCCGCTAC) | 0.811
AGATGGCCATGGACCGGTTTTCCCGGTAATCCGTATTTGTG (site AGATGGCCTCA) | 0.0259
AGATTATCATGGACCGGTTTTCCCGGTAATCCGTATTTGCA (site ACAGTATCTTG) | 2.54
AGATTATCATGGACCGGTTTTCCCGGTAATCCGTATTTGCA (site AGATTATCTTG) | 2.9
AGATTCGCATGGACCGGTTTTCCCGGTAATCCGTATTTGGA (site AGATTCGCTTC) | 1.89
AGATTTACATGGACCGGTTTTCCCGGTAATCCGTATTTGGA (site AGATTTACTTC) | 0.959
AGCAAAACATGGACCGGTTTTCCCGGTAATCCGTATTTGCA (site AGCAAAACTTG) | 0.735
AGCAAGGCATGGACCGGTTTTCCCGGTAATCCGTATTTGCA (site AGCAAGGCTTG) | 2.5
AGCAAGGCATGGACCGGTTTTCCCGGTAATCCGTATTTGCA (site AGGAAGACTTG) | 0.0151
AGCACAGCATGGACCGGTTTTCCCGGTAATCCGTATTTGAC (site AGCACAGCTGT) | 2.8
AGCACAGCATGGACCGGTTTTCCCGGTAATCCGTATTTGGG (site AGCACAGCTCC) | 0.0126
AGCACAGCATGGACCGGTTTTCCCGGTAATCCGTATTTGGG (site AGCCCAGCTCC) | 0.00716
AGCACAGCATGGACCGGTTTTCCCGGTAATCCGTATTTGGG (site AGCGCAGCTCC) | 0.0219
AGCACAGCATGGACCGGTTTTCCCGGTAATCCGTATTTGGG (site AGCTCAGCTCC) | 0
AGCACCGCATGGACCGGTTTTCCCGGTAATCCGTATTTGGG (site AGCACCGCTCC) | 0.0364
AGCACGACATGGACCGGTTTTCCCGGTAATCCGTATTTGCA (site AGCACGACTTG) | 2.02
AGCACGACATGGACCGGTTTTCCCGGTAATCCGTATTTGCA (site AGGAAGACTTG) | 0
AGCCAAACATGGACCGGTTTTCCCGGTAATCCGTATTTGAA (site AGCCAAACTTT) | 1.32

Sequence | recombinant UMI read abundance (log10)
AGCCCCTCATGGACCGGTTTTCCCGGTAATCCGTATTTGCA (site AGCCCCTCTTG) | 2.75
AGCCCTCCATGGACCGGTTTTCCCGGTAATCCGTATTTGTT (site AGCCCTCCTAA) | 0.00736
AGCCGAGCATGGACCGGTTTTCCCGGTAATCCGTATTTGTT (site AGCCAAGCTAA) | 0.398
AGCCGAGCATGGACCGGTTTTCCCGGTAATCCGTATTTGTT (site AGCCCAGCTAA) | 0.0229
AGCCGAGCATGGACCGGTTTTCCCGGTAATCCGTATTTGTT (site AGCCGAGCTAA) | 0.837
AGCCGAGCATGGACCGGTTTTCCCGGTAATCCGTATTTGTT (site AGCCTAGCTAA) | 0.00511
AGCCGTTCATGGACCGGTTTTCCCGGTAATCCGTATTTGAC (site AGCCATTCTGT) | 0
AGCCGTTCATGGACCGGTTTTCCCGGTAATCCGTATTTGAC (site AGCCCTTCTGT) | 0
AGCCGTTCATGGACCGGTTTTCCCGGTAATCCGTATTTGAC (site AGCCGTTCTGT) | 1.9
AGCCGTTCATGGACCGGTTTTCCCGGTAATCCGTATTTGAC (site AGCCTTTCTGT) | 0
AGCCTAGCATGGACCGGTTTTCCCGGTAATCCGTATTTGCT (site AGCCTAGCTAA) | 0.0111
AGCCTAGCATGGACCGGTTTTCCCGGTAATCCGTATTTGCT (site AGCCTAGCTAC) | 0.0198
AGCCTAGCATGGACCGGTTTTCCCGGTAATCCGTATTTGCT (site AGCCTAGCTAG) | 0.00934
AGCCTAGCATGGACCGGTTTTCCCGGTAATCCGTATTTGCT (site AGCCTAGCTAT) | 0
AGCCTAGCATGGACCGGTTTTCCCGGTAATCCGTATTTGTG (site AGCCTAGCTAA) | 0.0164
AGCCTAGCATGGACCGGTTTTCCCGGTAATCCGTATTTGTG (site AGCCTAGCTCA) | 0.0603
AGCCTAGCATGGACCGGTTTTCCCGGTAATCCGTATTTGTG (site AGCCTAGCTGA) | 0
AGCCTAGCATGGACCGGTTTTCCCGGTAATCCGTATTTGTG (site AGCCTAGCTTA) | 0.00858
AGCCTATCATGGACCGGTTTTCCCGGTAATCCGTATTTGTT (site AGCCTAACTAA) | 0.0449
AGCCTATCATGGACCGGTTTTCCCGGTAATCCGTATTTGTT (site AGCCTACCTAA) | 0.00813
AGCCTATCATGGACCGGTTTTCCCGGTAATCCGTATTTGTT (site AGCCTAGCTAA) | 0.0191
AGCCTATCATGGACCGGTTTTCCCGGTAATCCGTATTTGTT (site AGCCTATCTAA) | 0
AGCCTCGCATGGACCGGTTTTCCCGGTAATCCGTATTTGTA (site AGCCTCGCTTA) | 0.57
AGCCTCGCATGGACCGGTTTTCCCGGTAATCCGTATTTGTT (site AGCCTAGCTAA) | 0.0107
AGCCTCGCATGGACCGGTTTTCCCGGTAATCCGTATTTGTT (site AGCCTCGCTAA) | 0.0635
